These results are taken from publication PMC7528081, “The electrophysiological effect of cannabidiol on hERG current and in guinea-pig and rabbit cardiac preparations” (Scientific Reports, 2020).

In this test the target is T1, hERG potassium channel (Homo sapiens, UniProt Q12809).
T1 construct: gene KCNH2
T1 sequence (Q12809 whole entry): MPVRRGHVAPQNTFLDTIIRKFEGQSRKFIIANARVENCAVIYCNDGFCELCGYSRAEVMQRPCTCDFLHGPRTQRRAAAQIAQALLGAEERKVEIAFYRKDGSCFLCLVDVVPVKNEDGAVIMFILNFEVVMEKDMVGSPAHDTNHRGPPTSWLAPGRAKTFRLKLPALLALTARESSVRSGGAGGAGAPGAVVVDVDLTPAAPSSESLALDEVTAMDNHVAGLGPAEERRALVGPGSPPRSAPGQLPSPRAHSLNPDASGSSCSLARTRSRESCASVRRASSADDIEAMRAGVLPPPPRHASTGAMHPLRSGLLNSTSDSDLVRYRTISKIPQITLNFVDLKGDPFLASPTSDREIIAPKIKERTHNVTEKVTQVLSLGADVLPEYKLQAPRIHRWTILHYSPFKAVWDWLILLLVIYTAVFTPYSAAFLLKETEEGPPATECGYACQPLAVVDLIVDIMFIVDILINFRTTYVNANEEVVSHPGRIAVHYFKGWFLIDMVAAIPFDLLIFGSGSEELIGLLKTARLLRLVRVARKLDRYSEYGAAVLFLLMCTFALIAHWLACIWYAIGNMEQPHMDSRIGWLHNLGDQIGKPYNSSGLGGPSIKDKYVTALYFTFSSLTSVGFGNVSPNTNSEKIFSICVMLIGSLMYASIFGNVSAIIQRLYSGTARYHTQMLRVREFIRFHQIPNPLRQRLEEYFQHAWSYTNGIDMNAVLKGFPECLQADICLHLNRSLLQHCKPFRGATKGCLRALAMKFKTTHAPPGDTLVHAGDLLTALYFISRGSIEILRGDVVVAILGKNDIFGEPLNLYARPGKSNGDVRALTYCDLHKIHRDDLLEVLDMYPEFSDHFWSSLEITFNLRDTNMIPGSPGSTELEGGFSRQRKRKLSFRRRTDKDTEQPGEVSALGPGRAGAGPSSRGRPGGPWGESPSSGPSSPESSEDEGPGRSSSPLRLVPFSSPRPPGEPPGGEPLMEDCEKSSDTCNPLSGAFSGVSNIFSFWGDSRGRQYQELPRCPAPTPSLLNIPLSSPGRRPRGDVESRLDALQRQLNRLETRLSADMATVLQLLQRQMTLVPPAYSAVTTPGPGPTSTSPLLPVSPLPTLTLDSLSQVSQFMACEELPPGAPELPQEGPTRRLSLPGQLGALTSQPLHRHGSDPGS
Put plainly: automated whole-cell patch clamp (Patchliner), HEK […] cells expressing hERG, room temperature. In kind it is cell-based. Background: Patch clamp records ionic current or voltage across a cell membrane.
In general, IC50 refers to the concentration at which inhibition is half-maximal. High values mean weaker potency, low ones greater potency. With `CCCCCc1cc(O)c2c(c1)OC(C)(C)[C@@H]1CCC(C)=C[C@@H]21` [tetrahydrocannabinol], the midpoint of inhibition, the IC50, lay at 10.3 ± 0.55 µM.
Under `CCCCCc1cc(O)c2c(c1)OC(C)(C)[C@@H]1CCC(C(=O)O)=C[C@@H]21` [11-nor-9-carboxy-tetrahydrocannabinol] stands 65.4 ± 3.82 µM.
Turning to `C=C(C)[C@@H]1CCC(C)=C[C@H]1c1c(O)cc(CCCCC)cc1O` [cannabidiol], the IC50 is 2.07 ± 0.12 µM.
